# Reference: patent US20220401385A1, “Combination Therapy Based on PD-1 Signaling Inhibitors” (Kyoto University, priority 2019, published 2022)
# How the values were obtained:
# [1] = test system: CD8+ T cells; assay: Flow cytometry of draining lymph node and tumor-infiltrating CD8+ T cells of treated MC38 mice; type: in vivo, C57BL/6 mice
# Protocol: FIG. 1-1 a) CD8^+ T cells or CD3^+ T cells were isolated from mice, and 2×10^5 cells were stimulated with CD3/CD28 beads in 96-well U plates. After 24 hours and 48 hours, cells and culture supernatant were collected, followed by measurement of spermidine (SPD) concentration by mass spectrometry. […] Ten days after inoculation, PD-L1 antibody (2 mg/kg), PD-L1 antibody+SPD (2 mg/kg), or SPD alone was administered. Subsequently, PD-L1 antibody was administered 4 times at a regular interval of 5 days, and SPD was administered 8 times at a regular interval of 3 days. Tumor growth curve and survival curve are shown. c) Draining lymph nodes (DLNs) of mice were isolated 13 days after tumor inoculation, and stained with antibodies to CD8, CD44 and CD62L. The number of cells in draining lymph node (cells/DLN) in each treatment group is shown at the left side. After being gated, CD8^+ T cells were fractionated with CD44 and CD62L into P1 to P4 cell populations. Percentages and cell numbers of P1 to P4 in each treatment group are shown. d) Tumor was isolated 13 days after tumor inoculation and treated with collagenase. Percentages and numbers per mg tumor of tumor-infiltrating CD8^+ CD45.2^+ cells are shown. For statistical analysis, ANOVA was used. * p<0.05, ** p<0.01, *** p<0.001, **** p<0.0001.
# (§1) FIG. 2-1 a) Treated mice were analyzed for draining lymph nodes and the inside of tumor. Briefly, draining lymph nodes of mice were isolated 13 days after tumor inoculation, and stained with antibodies to CD8 and Sca-1. FACS diagram and percentages of Sca-1^+ cells in CD8^+ T cells are shown. b) CD8^+ T cells in isolated draining lymph nodes were stimulated with CD3/CD28 antibody beads. After 24 hours, cell proliferation was examined by means of ^3H uptake. At the same time, IFN-γ concentration in culture supernatant was measured. c) Tumor from the same mice as described above was treated with collagenase. Then, expression rates of PD-1 and Tim3 in tumor-infiltrating CD8^+ T cells were analyzed. d) Oxygen consumption rate (OCR) and extracellular acidification rate (ECAR) of draining lymph node CD8^+ T cells were measured with a Seahorse analyzer (N=3 wells). For statistical analysis, ANOVA was used. * p<0.05, ** p<0.01, *** p<0.001, **** p<0.0001.
# For analyzing draining lymph nodes, cells from axillary, brachial, and inguinal lymph nodes on the right side of tumor-inoculated mice were harvested and mixed. Averaged cell numbers per one lymph node were used as absolute cell numbers. For tumor analysis, tumor tissues were minced into 2- to 3-mm pieces with scissors and digested with collagenase type IV (Thermo Fisher Scientific) using a gentle MACS Dissociator (Miltenyi Biotec). The numbers of tumor cells per mg were used as absolute numbers.
# The following antibodies recognizing the indicated antigens were used: CD44 (1M7), CD45.2 (104), CD45.1 (A20), CD8 (53-6.7), CD62L (MEL-14) and Sca-1 (D7) from BioLegend. All flow cytometry experiments were performed on FACS Canto II (BD Biosciences) and analyzed using FlowJo software (FLOWJO, LLC). Apoptosis assay was performed with PI (Sigma) and Annexin (BioLegend) following the instructions on the kits.
# [2] = test system: CD8+ T cells in draining lymph nodes; assay: CD3/CD28 restimulation of draining lymph node CD8+ T cells of treated mice (3H uptake, IFN-γ ELISA); type: in vivo, C57BL/6 mice; conditions: combined use of SPD, 24 hours
# Protocol: as §1
# IFN-γ levels in culture supernatant were measured quantitatively with mouse IFN-γ kit (BioLegend) following the instructions on the kit.
# [3] = test system: draining lymph node CD8+ T cells; assay: Mitochondria-related proteomics of draining lymph node CD8+ T cells of treated mice; type: in vivo
# Protocol: T cells were prepared by two methods. For in vivo analysis, 13 days after tumor inoculation and 3 days after the start of therapy, draining lymph nodes from 5 mice were pooled, followed by isolation of CD8^+ T cells. From the isolated CD8^+ T cells, three samples each consisting of 1×10^6 cells were prepared and used for analysis. For in vitro experiments, 2×10^5 CD8^+ T cells stimulated with 0.2 μM spermidine for 1 hour were used. For mass spectrometry analysis, a Tandem Mass Tag (TMT) system or a Data Independent Acquisition (DIA) system was used. In the analysis of in vivo CD8^+ T cells (FIG. 3), those proteins which increased by 1.5-fold or more or decreased by 0.6-fold or less were extracted.
# [4] = test system: AMPK and mTOR signaling; assay: Western blotting of AMPK and mTOR signaling, CD44 low cells; type: cell-based, mice; conditions: presence or absence of SPD 0.2 μM, 1 hour and 2 hours
# Protocol: (§2) FIG. 5 CD8^+ T cells were isolated from the spleen of mice without tumor inoculation, and further isolated into CD44^+ (CD44 high) and CD44^− (CD44 low) cell populations. a) CD44 low cells were simulated with CD3/CD28 antibody beads and SPD (0.2 μM). […] Protein expression levels after 1 hour and 2 hours were confirmed by western blotting with the respective indicated antibodies. As regards statistical analysis, t-test was used for comparison of two groups. * p<0.05, ** p<0.01, *** p<0.001, **** p<0.0001.
# (§3) CD8^+ T cells were isolated using mouse CD8 Microbeads (Miltenyi Biotec or Mojo). After washing with PBS twice, 2×10^6 cells were solubilized in a lysis buffer containing 30 mM Tris-HCl (pH. 7.4), 150 mM NaCl, 10% glycerol, 0.1% SDS, 1% Triton-X-100, 0.05% Na-Doc, 5 mM EDTA (pH. 8.0), protease inhibitor mixture (Roche Molecular Biochemicals) and phosphatase inhibitors (Nacalai Tesque). After measurement of protein concentrations by DC protein assay (Bio-Rad), 4 μg of proteins was mounted on 4 to 20% gradient Mini-PROTEAN TGX Gels (Bio-Rad) and electroblotted onto nitrocellulose membranes, which were then incubated in a blocking buffer of TBS containing 1% BSA. Primary antibody incubations were carried out overnight at 4° C. in blocking buffer. After washing, secondary antibody incubations were carried out at room temperature for 40 min in blocking buffer. […]
# [5] = test system: AMPK and mTOR signaling; assay: Western blotting of AMPK and mTOR signaling, CD44 high cells; type: cell-based, mice; conditions: SPD 0.2 μM, 1 hour and 2 hours
# Protocol: as §2, §3
# [6] = SPD + PD-1 inhibitory antibody, 13 days after tumor inoculation
# [7] = combination therapy, 13 days after tumor inoculation
compound,measurement,setting,value
"NCCCCNCCCN [SPD, spermidine]",absolute number of effector T cells (P3) in draining lymph nodes,[1]; [6],increase
same,cell number of the draining lymph nodes,[1]; [6],increase
same,frequency of effector T cells (P3) in draining lymph nodes,[1]; [6],increase
same,expression of Sca-1 (activation marker) in draining lymph node CD8+ T cells,[1]; combination therapy using SPD,enhanced
same,"frequency of exhausted CD8+ T cells (CD8+ PD-1+ Tim-3+), tumor-infiltrating",[1]; combination therapy using SPD,decreased significantly
same,frequency of tumor-infiltrating CD8+ T cells,[1]; [7],increased
same,number of tumor-infiltrating CD8+ T cells,[1]; [7],increased
same,cell proliferation of isolated CD8+ T cells as stimulated with CD3,[2]; 3H uptake,enhanced
same,IFN-γ production of isolated CD8+ T cells as stimulated with CD3,[2]; culture supernatant,enhanced
same,"levels of electron transport chain related proteins (Cytochrome, NADH dehydrogenase, ATPase)",[3]; combined therapy compared to PD-1 inhibition alone,remarkably increased
same,number of mitochondria-related proteins whose level changed significantly,"[3]; out of 203 proteins, combined therapy compared to PD-1 inhibition alone",184
same,pathway analysis: proteins associated with oxidative phosphorylation and metabolic pathways such as glycolysis,[3]; proteins increased under combined therapy,occupied top positions
same,AMPK and mTOR signaling,[4],did not cause much difference
same,"expression levels of pAMPK and its downstream molecules (pACC, pPKCa)",[5],markedly high
